# Like-named read-outs stand apart in the source and are kept apart here.
# Tests used:
# [1] = parameters: method as in PMID 24174343; conditions: previous report; cited from earlier work
# σ-2 receptor = biological target: T1, σ-2 receptor (Rattus norvegicus, UniProt Q5U3Y7); assay: σ-2 receptor competitive binding with [3H]DTG in rat liver preparations; conditions: read-out: Ki σ-2
# T1 construct: Rat liver preparations (about 100 μg protein) were incubated in quadruplicate; from tissue; host or cells: liver of male Sprague-Dawley rats
# T1 sequence (Q5U3Y7 1-176): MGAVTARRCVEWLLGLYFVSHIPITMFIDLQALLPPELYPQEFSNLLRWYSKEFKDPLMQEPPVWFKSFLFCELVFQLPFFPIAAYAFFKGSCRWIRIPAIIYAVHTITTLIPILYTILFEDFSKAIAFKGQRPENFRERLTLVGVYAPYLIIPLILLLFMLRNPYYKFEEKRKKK
# Method: Rat brain and liver tissue preparations were prepared from dissected brains (not including the cerebellum) and livers from male Sprague-Dawley rats (250–300 g), as previously described[34].
# The incubated samples were treated in the same manner as described for the σ-1 receptor binding assay.
# (§1) Ki values were calculated using Graphpad Prism (GraphPad Software, Inc. San Diego, USA).
# VAChT = biological target: T2, VAChT (Rattus norvegicus, UniProt Q62666); assay: VAChT in vitro competitive binding with (-)-[3H]vesamicol in rat brain preparations; conditions: read-out: Ki VAChT
# T2 construct: The rats were sacrificed 60 minutes after injection and their brains collected; from tissue; host or cells: brain of live male Sprague-Dawley rats (in vivo)
# T2 sequence (Q62666 1-530): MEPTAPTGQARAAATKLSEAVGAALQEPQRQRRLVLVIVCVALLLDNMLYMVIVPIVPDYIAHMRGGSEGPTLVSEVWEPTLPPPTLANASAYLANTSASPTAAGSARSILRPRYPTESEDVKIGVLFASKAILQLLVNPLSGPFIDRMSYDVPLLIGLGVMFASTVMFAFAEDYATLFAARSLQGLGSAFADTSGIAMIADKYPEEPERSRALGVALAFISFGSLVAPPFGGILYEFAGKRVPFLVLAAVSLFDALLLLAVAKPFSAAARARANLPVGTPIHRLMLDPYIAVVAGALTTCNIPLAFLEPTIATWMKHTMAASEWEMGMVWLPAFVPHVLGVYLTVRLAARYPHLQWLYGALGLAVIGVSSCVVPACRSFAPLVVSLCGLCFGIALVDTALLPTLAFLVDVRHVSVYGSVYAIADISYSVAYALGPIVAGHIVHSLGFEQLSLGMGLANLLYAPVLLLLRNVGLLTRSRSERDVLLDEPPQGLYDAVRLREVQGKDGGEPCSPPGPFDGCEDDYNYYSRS
# σ-1 receptor = σ-1 receptor (Rattus norvegicus, UniProt Q9R0C9); assay: σ-1 receptor competitive binding with (+)-[3H]pentazocine in rat cerebrum preparations
# Sequence of σ-1 receptor (Q9R0C9 whole entry): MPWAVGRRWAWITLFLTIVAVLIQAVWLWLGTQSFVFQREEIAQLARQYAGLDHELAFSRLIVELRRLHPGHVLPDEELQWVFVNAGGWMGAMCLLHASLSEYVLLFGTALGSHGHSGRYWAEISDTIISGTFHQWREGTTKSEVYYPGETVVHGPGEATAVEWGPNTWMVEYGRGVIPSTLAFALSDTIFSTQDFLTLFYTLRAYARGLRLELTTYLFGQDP
# Method: The incubated samples were treated in the same manner as described for the VAChT binding assays, except that Whatman GF/B glass fiber filters were used.
# as §1
compound,measurement,setting,value
OC1C[C@@H]2CCCC[C@H]2CC1N1CCC(c2ccccc2[125I])CC1 (mixture of isomers) [racemic [^125I]OIDV],radiolabeled metabolites in the brain,[1],unable to observe the presence of radiolabeled metabolites in the brain
O[C@@H]1C[C@H]2CCCC[C@@H]2C[C@H]1N1CCC(c2ccccc2I)CC1 [(-)-OIDV],Ki,σ-2 receptor,59.9 ± 10.6 nM
same,Ki,VAChT,22.1 ± 4.3 nM
same,Ki,σ-1 receptor,168 ± 47.2 nM
"OC1CC2CCCCC2CC1N1CCC(c2ccccc2)CC1 (stereo not shown) [DV, decalinvesamicol]",Ki,"σ-2 receptor; rat liver preparations, 5 nM [3H]DTG, 1 μM (+)-pentazocine to mask σ-1, 37°C 90 min, mean ± SD",65.9 ± 12.1 nM
same,Ki,"VAChT; rat brain preparations, (-)-[3H]vesamicol, 200 nM DTG to mask sigma receptors, 37°C 60 min, mean ± SD",8.6 ± 2.5 nM
same,Ki,"σ-1 receptor; read-out: Ki σ-1, rat cerebrum preparations, 5 nM (+)-[3H]pentazocine, 37°C 90 min, mean ± SD",74.4 ± 12 nM

# — paper PMC4713475, “In Vivo Differences between Two Optical Isomers of Radioiodinated o-iodo-trans-decalinvesamicol for Use as a Radioligand for the Vesicular Acetylcholine Transporter” (PLoS ONE, 2016)
